System: release of IL-1β
Test: Inhibition of LPS-induced IL-1β release from isolated human mononuclear cells (enzyme immunoassay)
Assay type: cell-based
Settings: human mononuclear cells from citrate blood, lipopolysaccharide (Salmonella abortus equi) induced, 37° C. for 20 hours, IL-1β in supernatant; seven concentrations
Description: The mononuclear cells were concentrated from freshly obtained human citrate blood by known standard processes. See, e.g., Tiku et al., J. Immunol. 136/10 (1986) 3677.
15 ml of Lymphoprep® (Molter GmbH, Heidelberg, FRG) was carefully introduced under a layer of 10 ml of freshly prepared human citrate blood and the mixture was then centrifuged at 400×g (Minifuge®, Heraeus, Hanau, FRG) at 20° C. for 40 minutes. The cell fraction, showing as a white ring in the phase boundary, was withdrawn with the aid of a syringe, diluted 1:1 (v/v) with PM-16 buffer (Serva, Heidelberg, FRG) and centrifuged again as above for 10 minutes. The […] was taken up in 10 ml of RPMI 1640 buffer (Gibco, Berlin, FRG), to which 300 mg/I of L-glutamine, 25 mmol/l of HEPES, […] of penicillin had been added beforehand. The cell suspension, comprising about 90% lymphocytes and 10% monocytes, was adjusted to about 5 million cells/ml with the aid of a cell counter (type IT, Coulter Diagnostics, Krefeld, FRG). The cell viability was checked with the aid of the known lactate dehydrogenase method before and after the inhibition experiments. No change in the viability was found here.
The synthesis and release of cellular IL-1β was induced by adding a solution of […] of lipopolysaccharide (Salmonella abortus equi, Sigma GmbH, Deisenhofen, FRG) in 0.01 ml of dimethyl sulfoxide/water (1:10, v/v) to 0.48 ml of the cell fraction described above. At the same time, a solution of the test substance in 0.01 ml was added to the cell fraction, and the mixture was left in a commercially available incubator at 37° C. for 20 hours. After the sample had been cooled to 0° C., it was centrifuged in a bench centrifuge for 1 minute and in each case 0.025 ml aliquots of the supernatant were investigated specifically for their IL-1β content with the aid of a commercially available “sandwich” enzyme immunoassay kit (Biosource, Ratingen, FRG), in accordance with the manufacturer's instructions. The control values, without addition of the test preparation, were determined and set at 100%. In particular, any influence of dimethyl sulfoxide on the IL-1β level was excluded by corresponding comparison measurements.
The concentration range was chosen here such that it comprised the ranges from 0% inhibition (that is to say without addition of the test substance) to at least 80% inhibition. The test substance concentration which led to 50% inhibition of the release of IL-1β was determined by extrapolation from the dose-effect relationship determined by graph or mathematically.
IC50 value has been shown in Table 2 as micromoles/liter for the corresponding compounds of the formula (I) according to the invention.

Row | Compound | IC50 [µM]
1 | O=S(=O)(c1nc(-c2ccccc2)ns1)N1CCOCC1 [Example 2] | 3
2 | O=S(=O)(NCc1ccccc1)c1nc(-c2ccccc2)ns1 [Example 4] | 15
3 | COC(=O)[C@H](C)NS(=O)(=O)c1nc(-c2ccccc2)ns1 [Example 7] | 2
4 | CN1CCN(S(=O)(=O)c2nc(-c3ccccc3)ns2)CC1 [Example 8] | 4
5 | O=C(O)C1CCC(CNS(=O)(=O)c2nc(-c3ccccc3)ns2)CC1 (centres unmarked) [Example 9] | 2
6 | O=S(=O)(c1nc(-c2ccccc2)ns1)N1CCN(c2ccc(Cl)cc2)CC1 [Example 10] | 10
7 | CCOC(=O)C1CCN(S(=O)(=O)c2nc(-c3ccccc3)ns2)CC1 [Example 12] | 2
8 | C[C@H](NS(=O)(=O)c1nc(-c2ccccc2)ns1)C(=O)O [Example 16, (S)-2-(3-Phenyl-(1,2,4)-thiadiazole-5-sulfonylamino)propionic acid] | 10
9 | O=C(c1ccc(F)cc1)C1CCN(S(=O)(=O)c2nc(-c3ccccc3)ns2)CC1 [Example 20] | 12
10 | O=C(O)CCNS(=O)(=O)c1nc(-c2ccccc2)ns1 [Example 21] | 6
11 | O=C(O)[C@H](Cc1ccccc1)NS(=O)(=O)c1nc(-c2ccccc2)ns1 [Example 22] | 20
12 | COc1ccc(-c2nsc(S(=O)(=O)N3CCN(C)CC3)n2)cc1Cl [Example 24] | 20
13 | CN1CCN(S(=O)(=O)c2nc(-c3ccc(Cl)cc3)ns2)CC1 [Example 25] | 2

The remaining molecules from weak to strong by IC50, led by results:

Row | IC50 [µM] | Compound
14 | 40 | O=C(O)CNS(=O)(=O)c1nc(-c2ccccc2)ns1 [Example 19]
15 | 34 | O=S(=O)(Nc1ccc(Cl)cc1)c1nc(-c2ccccc2)ns1 [Example 3]
16 | 11 | CN(c1ccccc1)S(=O)(=O)c1nc(-c2ccccc2)ns1 [Example 1]
17 | 10 | C[C@H](NS(=O)(=O)c1nc(-c2ccccc2)ns1)C(=O)OCc1ccccc1 [Example 17]
18 | 8 | O=C(O)[C@@H]1CCCN1S(=O)(=O)c1nc(-c2ccccc2)ns1 [Example 18]
19 | 6 | O=S(=O)(NC1CCCCC1)c1nc(-c2ccccc2)ns1 [Example 5]
20 | 6 | CC(C)OC(=O)[C@H](C)NS(=O)(=O)c1nc(-c2ccccc2)ns1 [Example 23]
21 | 2 | O=C1CCN(S(=O)(=O)c2nc(-c3ccccc3)ns2)CC1 [Example 13]
22 | 2 | O=C(O)C1CCN(S(=O)(=O)c2nc(-c3ccccc3)ns2)CC1 [Example 14]
23 | 2 | CC(=O)N1CCN(S(=O)(=O)c2nc(-c3ccccc3)ns2)CC1 [Example 15]
